Here are results for twelve compounds from US12392782B2, “Characterization of protein binding to per- and polyfluoroalkyl substances” (North Carolina State University, priority 2021, dated 2025).

bovine serum albumin (BSA), sequence (P02769 25-607): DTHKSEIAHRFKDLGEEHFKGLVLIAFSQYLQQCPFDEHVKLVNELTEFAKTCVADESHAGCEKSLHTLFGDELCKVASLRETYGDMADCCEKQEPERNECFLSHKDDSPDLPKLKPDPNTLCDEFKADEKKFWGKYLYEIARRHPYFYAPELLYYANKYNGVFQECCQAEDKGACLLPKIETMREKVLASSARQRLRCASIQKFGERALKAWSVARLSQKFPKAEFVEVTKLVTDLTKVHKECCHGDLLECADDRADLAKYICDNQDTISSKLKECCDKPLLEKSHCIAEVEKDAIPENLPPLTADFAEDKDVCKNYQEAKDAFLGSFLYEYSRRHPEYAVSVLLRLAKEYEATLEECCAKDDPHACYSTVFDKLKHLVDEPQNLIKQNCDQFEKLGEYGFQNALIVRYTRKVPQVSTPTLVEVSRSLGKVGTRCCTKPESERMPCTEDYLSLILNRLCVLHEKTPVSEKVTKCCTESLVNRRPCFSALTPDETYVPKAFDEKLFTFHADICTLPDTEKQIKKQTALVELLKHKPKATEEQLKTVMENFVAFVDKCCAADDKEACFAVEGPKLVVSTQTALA
HSA, sequence (P02768 25-609): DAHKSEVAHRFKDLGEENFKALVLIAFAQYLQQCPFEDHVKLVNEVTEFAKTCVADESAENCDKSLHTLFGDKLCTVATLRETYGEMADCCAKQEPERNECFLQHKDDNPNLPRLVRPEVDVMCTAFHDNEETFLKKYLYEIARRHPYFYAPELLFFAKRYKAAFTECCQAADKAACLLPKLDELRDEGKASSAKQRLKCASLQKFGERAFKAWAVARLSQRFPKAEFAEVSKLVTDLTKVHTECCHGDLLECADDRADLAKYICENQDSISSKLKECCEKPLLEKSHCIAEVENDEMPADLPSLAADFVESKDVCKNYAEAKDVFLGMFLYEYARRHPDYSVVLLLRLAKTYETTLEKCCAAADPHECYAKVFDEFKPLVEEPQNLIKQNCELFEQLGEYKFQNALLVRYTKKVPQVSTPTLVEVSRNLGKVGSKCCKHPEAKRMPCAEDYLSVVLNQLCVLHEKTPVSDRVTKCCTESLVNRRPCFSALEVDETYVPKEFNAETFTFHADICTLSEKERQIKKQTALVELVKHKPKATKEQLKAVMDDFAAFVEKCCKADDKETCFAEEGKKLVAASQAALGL

The target of the first series is Porcine serum albumin (PSA) (Sus scrofa, UniProt P08835). Description: DSF thermal shift assay of porcine serum albumin binding.
Porcine serum albumin (PSA), sequence (P08835 25-607): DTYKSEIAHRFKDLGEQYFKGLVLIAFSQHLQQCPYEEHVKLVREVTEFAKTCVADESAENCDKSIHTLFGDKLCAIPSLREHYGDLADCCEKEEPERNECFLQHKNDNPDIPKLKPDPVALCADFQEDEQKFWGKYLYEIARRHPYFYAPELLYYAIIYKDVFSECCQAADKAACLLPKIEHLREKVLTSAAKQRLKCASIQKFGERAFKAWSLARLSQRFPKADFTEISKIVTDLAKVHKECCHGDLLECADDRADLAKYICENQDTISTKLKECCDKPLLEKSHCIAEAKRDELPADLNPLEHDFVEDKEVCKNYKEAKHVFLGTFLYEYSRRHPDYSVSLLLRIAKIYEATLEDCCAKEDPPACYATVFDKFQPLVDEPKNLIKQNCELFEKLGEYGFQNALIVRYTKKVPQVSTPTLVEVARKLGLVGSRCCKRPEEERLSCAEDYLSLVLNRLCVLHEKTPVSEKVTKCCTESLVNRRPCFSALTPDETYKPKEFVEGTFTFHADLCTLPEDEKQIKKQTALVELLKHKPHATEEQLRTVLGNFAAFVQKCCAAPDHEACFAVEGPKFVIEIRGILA
Details: not given
The procedure: (§1) Assays were also performed in 384-well plates, in which the reactions were performed using half the final volume (10 μL) and the concentration of each reagent was halved compared to those used in the 96-well plates.
(§2) Data are reported as mean values±SEM following background subtraction.
(§3) [formula] Top is the maximal response, bottom is minimal response, P is protein concentration, Kd is dissociation constant, X is ligand concentration, and Y is change in Tm. […] Comparison between protein concentrations and comparisons of calculated binding affinities between different compounds was performed using one-way analysis of variance (ANOVA) and a Tukey's post hoc test was performed to evaluate pair-wise differences. Significance between differences in values was defined as p<0.05.
(§4) Binding affinities for certain PFAS compounds were also determined using PSA, BSA, and RSA.
What is called Kd is the equilibrium constant for the complex coming apart. Take `O=C(O)C(F)(F)C(F)(F)C(F)(F)C(F)(F)C(F)(F)F` [PFHxA, Perfluorohexanoic acid]: the Kd is 1420 ± 30 µM.

Take `O=S(=O)(O)C(F)(F)C(F)(F)C(F)(F)C(F)(F)F` [PFBS, Perfluorobutanesulfonic acid]: the Kd stood at 1550 ± 40 µM.

With `O=C(O)C(F)(F)C(F)(F)C(F)(F)F` [PFBA, Perfluorobutanoic acid], the Kd worked out at 1500 ± 110 µM.

Regarding `O=C(O)C(F)(F)C(F)(F)C(F)(F)C(F)(F)C(F)(F)C(F)(F)C(F)(F)F` [PFOA, perfluorooctanoic acid], the Kd stood at 320 ± 40 µM.

A further series deals with rat serum albumin (RSA) (Rattus norvegicus, UniProt P02770). Description: DSF thermal shift assay of rat serum albumin binding.
rat serum albumin (RSA), sequence (P02770 25-608): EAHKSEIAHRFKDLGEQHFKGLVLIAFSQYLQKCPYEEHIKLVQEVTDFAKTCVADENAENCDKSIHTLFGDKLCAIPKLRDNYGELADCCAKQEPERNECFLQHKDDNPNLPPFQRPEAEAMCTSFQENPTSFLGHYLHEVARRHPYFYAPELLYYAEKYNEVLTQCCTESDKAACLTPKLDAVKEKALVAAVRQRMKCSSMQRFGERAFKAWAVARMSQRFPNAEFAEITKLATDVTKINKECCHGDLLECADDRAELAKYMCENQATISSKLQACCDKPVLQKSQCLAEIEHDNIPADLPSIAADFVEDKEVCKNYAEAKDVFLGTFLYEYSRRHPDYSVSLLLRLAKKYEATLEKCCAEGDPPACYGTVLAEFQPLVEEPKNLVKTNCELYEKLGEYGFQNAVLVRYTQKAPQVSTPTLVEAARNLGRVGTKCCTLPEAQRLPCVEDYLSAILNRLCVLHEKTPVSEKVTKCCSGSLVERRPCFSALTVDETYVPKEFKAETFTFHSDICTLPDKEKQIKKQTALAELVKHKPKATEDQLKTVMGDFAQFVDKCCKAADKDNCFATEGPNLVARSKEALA
Details: not given
As for the experimental part:
as §1, §2, §3, §4
`O=C(O)C(F)(F)C(F)(F)C(F)(F)C(F)(F)C(F)(F)F` [PFHxA, Perfluorohexanoic acid]: the Kd turned out to be 960 ± 70 µM.

With `O=S(=O)(O)C(F)(F)C(F)(F)C(F)(F)C(F)(F)F` [PFBS, Perfluorobutanesulfonic acid], the Kd was 930 ± 80 µM.

Regarding `O=C(O)C(F)(F)C(F)(F)C(F)(F)F` [PFBA, Perfluorobutanoic acid], the Kd was determined as 1390 ± 110 µM.

A further series addresses HSA (Homo sapiens, UniProt P02768). Description: Differential scanning fluorimetry (DSF) thermal shift assay of HSA binding.
Details: not given
The procedure:
as §1, §2, §3
Possible solvent effects were investigated for PFOA that was solubilized in each of the three solvents.
(In general: DSF heats the sample and reads unfolding from a dye or from intrinsic fluorescence.)
One may read the EC50 as the midpoint of the concentration-response curve. In the case of `CCCCCCCCCCCCCCCC(=O)O` [Hexadecanoic Acid, hexadecanoic acid, reference compound], the EC50 was determined as 84 ± 21 µM and the Kd was found to be 30 ± 8 µM.

As for `O=C(O)CCC(F)(F)C(F)(F)C(F)(F)C(F)(F)C(F)(F)F` [5:3 FTCA, 2H,2H,3H,3H-Perfluorooctanoic acid], the EC50 worked out at 1480 ± 100 µM and the Kd was 620 ± 42 µM.

Take `O=C(O)CCC(F)(F)C(F)(F)C(F)(F)C(F)(F)C(F)(F)C(F)(F)F` [6:3 FTCA, 2,H,2H,3H,3H-Perfluorononanoic acid]: the EC50 stood at 840 ± 86 µM and the Kd amounted to 810 ± 92 µM.

With `O=C(O)C(F)(F)C(F)(F)C(F)(F)C(F)(F)C(F)(F)C(F)(F)C(F)(F)C(F)(F)F` [PFNA, perfluorononanoic acid], the EC50 turned out to be 600 ± 92 µM and the Kd was 580 ± 87 µM.

Take `O=C(O)C(F)(F)C(F)(F)C(F)(F)C(F)(F)C(F)(F)F` [PFHxA, Perfluorohexanoic acid]: the EC50 came out at 1400 ± 110 µM and the equilibrium dissociation constant (Kd) worked out at 1640 ± 190 µM.

With `O=S(=O)(O)C(F)(F)C(F)(F)C(F)(F)C(F)(F)F` [PFBS, Perfluorobutanesulfonic acid], the EC50 came out at 1720 ± 230 µM and the Kd stood at 1650 ± 280 µM.

On to `O=C(O)C(F)(F)C(F)(F)C(F)(F)F` [PFBA, Perfluorobutanoic acid], for which the EC50 amounted to 2610 ± 190 µM and the Kd turned out to be 2570 ± 320 µM.

For `O=S(=O)(O)C(F)(F)C(F)(F)OC(F)(C(F)(F)F)C(F)(F)OC(F)C(F)(F)F` (stereo not shown) [Nafion bp2, 7H-perfluoro-4-methyl-3,6-dioxaoctanesulfonic acid], the EC50 stood at 1900 ± 240 µM and the Kd turned out to be 1510 ± 150 µM.

`O=C(O)C(F)(F)C(F)(F)C(F)(F)C(F)(F)C(F)(F)C(F)(F)C(F)(F)C(F)(F)C(F)(F)C(F)(F)F` [PFunDA, Perfluoroundecanoic acid]: the EC50 came to 1490 ± 24 µM and the Kd worked out at 1360 ± 530 µM.

Regarding `O=C(O)CCC(F)(F)C(F)(F)C(F)(F)F` [3:3 FTCA, 2H,2H,3H,3H-Perfluorohexanoic acid], the EC50 stood at 2060 ± 210 µM and the Kd was 1710 ± 190 µM.

Turning to `O=C(O)C(F)(F)C(F)(F)C(F)(F)C(F)(F)C(F)(F)C(F)(F)C(F)(F)C(F)(F)C(F)(F)F` [PFDA, perfluorodecanoic acid], the EC50 came to 1110 ± 70 µM and the Kd stood at 1190 ± 240 µM.

The series is the same for the next values; noted with them: PFAS; 4-parameter fit of Δ Tm; mean ± SEM.
`O=C(O)C(F)(F)C(F)(F)C(F)(F)C(F)(F)C(F)(F)C(F)(F)C(F)(F)F` [PFOA, perfluorooctanoic acid]: the 50% effective concentration (EC50) worked out at 840 ± 43 µM.

Staying with this series, now noted: stock solvent DMSO (50% in HBS).
As for `O=C(O)C(F)(F)C(F)(F)C(F)(F)C(F)(F)C(F)(F)C(F)(F)C(F)(F)F` [PFOA, perfluorooctanoic acid], the “Δ Tm” value came to 13.2 °C.

Still in this series, the particulars now being: stock solvent DMSO (50% in HBS); mean ± SEM.
As for `O=C(O)C(F)(F)C(F)(F)C(F)(F)C(F)(F)C(F)(F)C(F)(F)C(F)(F)F` [PFOA, perfluorooctanoic acid], the EC50 was found to be 850 ± 10 µM and the Kd is 840 ± 80 µM.

Staying with this series, now noted: stock solvent HEPES-buffered saline (HBS); mean ± SEM.
In the case of `O=C(O)C(F)(F)C(F)(F)C(F)(F)C(F)(F)C(F)(F)C(F)(F)C(F)(F)F` [PFOA, perfluorooctanoic acid], the Kd worked out at 830 ± 110 µM.

Staying with this series, now noted: stock solvent Methanol (30% in HBS).
With `O=C(O)C(F)(F)C(F)(F)C(F)(F)C(F)(F)C(F)(F)C(F)(F)C(F)(F)F` [PFOA, perfluorooctanoic acid], the “Δ Tm” value amounted to 13.5 °C.

Still in this series, the particulars now being: stock solvent Methanol (30% in HBS); mean ± SEM.
`O=C(O)C(F)(F)C(F)(F)C(F)(F)C(F)(F)C(F)(F)C(F)(F)C(F)(F)F` [PFOA, perfluorooctanoic acid]: the EC50 came to 780 ± 70 µM.

A further series addresses bovine serum albumin (BSA) (Bos taurus, UniProt P02769). Description: DSF thermal shift assay of bovine serum albumin binding.
Details: not given
The procedure:
as §1, §2, §3, §4
In the case of `O=C(O)C(F)(F)C(F)(F)C(F)(F)C(F)(F)C(F)(F)F` [PFHxA, Perfluorohexanoic acid], the Kd is 950 ± 110 µM.

In the case of `O=S(=O)(O)C(F)(F)C(F)(F)C(F)(F)C(F)(F)F` [PFBS, Perfluorobutanesulfonic acid], the Kd turned out to be 1130 ± 80 µM.

Consider `O=C(O)C(F)(F)C(F)(F)C(F)(F)F` [PFBA, Perfluorobutanoic acid], for which the Kd worked out at 980 ± 100 µM.

Consider `O=C(O)C(F)(F)C(F)(F)C(F)(F)C(F)(F)C(F)(F)C(F)(F)C(F)(F)F` [PFOA, perfluorooctanoic acid], for which the Kd is 750 ± 50 µM.
